Measured values from patent US20040055024A1, “Conditional mutants of influenza virus M2 protein” (Medical Research Council, priority 1998, published 2004).

Assays:
murine MEL cells = type: cell-based, mouse
thymic rudiments = assay: Foetal thymic organ culture of transgenic embryos in the presence of rimantadine; type: cell-based, mouse; conditions: thymic lobes of 15 day embryos, 7 to 10 days culture with rimantadine, FACS
Source text: Opin. Immunol. 6:293-297.
Embryo sacs are removed from 15-day pregnant mice and the embryos released by cutting the umbilical cord. The embryos are stored on ice; non-embryo tissue is discarded. Any abnormal embryos, or asynchronous embryos as judged by size, are also discarded at this stage.
Foetal thymic lobes are dissected from the embryo and cultured on Costar filters (Coming) on RPMI medium. The filters are transferred to a new well of medium every day during the experiment.
At between 7 and 10 days, the thymic lobes are harvested, transferred to an eppendorf tube containing 200 μl medium, and the cells separated by teasing out mechanically. The cells are then analysed by FACS as described above.
In a second series of experiments, the thymic rudiments are cultured in the presence of rimantadine, and the cells analysed by FACS as described above.

[1] = test system: T-lymphocyte development (thymus, spleen); conditions: mouse, in vivo

CC(N)C12CC3CC(CC(C3)C1)C2 (stereo not shown) [Rimantadine]
cell kinetics after induction (murine MEL cells): preceded by two cell doublings before terminal differentiation and growth arrest
cloning of M2(H37A) mutant in MEL cells (murine MEL cells): the mutant can be cloned
rescue of T-cell production (thymic rudiments): able to rescue T-cell production in the thymic rudiments
rescue of the lack of T-cells by administration of rimantadine [1]: not rescuable
